Results reported in ChEMBL document CHEMBL5108080 (J Med Chem, 2022).

Columns and labels:
[1] = test system: Influenza A virus; test: (§1) Antiviral activity against group 2 influenza A virus H3N2 (A/Victoria/361/2011) infected in human A549 cells assessed as inhibition of viral entry preincubated with compound for 30 mins followed by viral infection for 1 hour further incubated for 48 hrs with replacement of fresh medium containing compound.; assay type: functional, organism-based
[2] = test system: Influenza A virus; test: as §1, with “(A/Hong Kong-11/1968)” for “(A/Victoria/361/2011)”, “compound” for “compound.”; assay type: functional, organism-based

c1ccc(-c2nc3ncccn3c2NC2CCCCC2)cc1
EC50 [1]: 0.73 µM
EC50 [2]: 0.071 µM

COc1ccc(-c2nc3ncccn3c2NC2CCCCC2)cc1
EC50 [1]: 0.64 µM
EC50 [2]: 0.03 µM

Oc1ccc(-c2nc3ncccn3c2NC2CCCCC2)cc1
EC50 [1]: 1.5 µM
EC50 [2]: 0.36 µM

Fc1ccc(-c2nc3ncccn3c2NC2CCCCC2)cc1
EC50 [1]: 0.42 µM
EC50 [2]: 0.32 µM

Brc1ccc(-c2nc3ncccn3c2NC2CCCCC2)cc1
EC50 [1]: 1.5 µM
EC50 [2]: 0.19 µM

Cc1cc(Br)ccc1-c1nc2ncccn2c1NC1CCCCC1
EC50 [2]: 0.34 µM

CCOC(=O)C1=C[C@@H](OC(CC)CC)[C@H](NC(C)=O)[C@@H](N)C1 [OSELTAMIVIR]
EC50 [1]: > 10 µM
EC50 [2]: 0.022 µM
